Data: publication PMC8481502, “Bovine NK-lysin peptides exert potent antimicrobial activity against multidrug-resistant Salmonella outbreak isolates” (Scientific Reports, 2021)
Peptide text beside a SMILES is read from it.

Assays:
[1] = tested on: MDR Salmonella enterica serovar I 4,[5],12:i:- strain USDA15WA-1 (SX238); assay: Growth curve assay (automated reader, OD600) with isolate SX238; assay type: cell-based
Protocol: (§1) Overnight cultures of a MDR Salmonella outbreak isolate (SX238) and one non-MDR Salmonella isolate (SB377) were diluted 1:1000 in LB broth to obtain approximately 1 × 10^6 colony forming units per milliliter (CFU/mL). One hundred microliters of each diluted culture were transferred into honeycomb® 100-well plates (~ 1 × 10^5 CFU/well) (Growth Curves USA, Piscataway, NJ). Bovine NK-lysin peptides (NK1, NK2A, NK2B, and NK2C) were added at the final peptide concentrations of 20, 10, 5, 3.5, 2 µM in PBS (total volume = 20 µL) with a final bacterial-peptide volume of 120 µL/well. The plates were covered with lids and placed in an automated growth curve reader (Bioscreen C; Growth Curves USA, Piscataway, NJ) which was programmed for continuous shaking at 37 °C, and optical density readings at 600 nm (OD600) were recorded every hour for 24 h. […] The optical density data were analyzed, and growth curve graphs for each isolate were generated using MS Excel. […] Twenty-four-hour growth curve assays for Salmonella isolate SX238 were repeated at different bacterial CFU (~ 1 × 10^5, 1 × 10^6, 1 × 10^7, and 1 × 10^8 CFU/mL) with NK2A (5 µM and 10 µM). Sc-NK2A was included as a control for the assay.

[2] = tested on: Salmonella enterica serovar Typhimurium isolate UK-1 (SB377, non-MDR); assay: Growth curve assay (automated reader, OD600) with isolate SB377; assay type: cell-based; conditions: LB broth, ~1 × 10^5 CFU/well, 37 °C, OD600 every hour for 24 h; tested 2-20 µM
Protocol: as §1

[3] = tested on: MDR Salmonella enterica serovar Typhimurium DT193 strain 1434 (SX231); assay: Growth curve assay (automated reader, OD600) with isolate SX231; assay type: cell-based; conditions: LB broth, 10^5 CFU/well, OD600 over 24 h
[4] = tested on: MDR Salmonella enterica serovar Heidelberg (SB395); assay: Growth curve assay (automated reader, OD600) with isolate SB395; assay type: cell-based; conditions: LB broth, 10^5 CFU/well, OD600 over 24 h
[5] = tested on: Salmonella isolates (MDR and non-MDR); assay: Growth curve assay, statements over all Salmonella isolates; assay type: cell-based
Protocol: as §1

Swiss-Webster mice = assay: Mouse study of in vivo cytotoxic effects; conditions: single intraperitoneal dose 100 µg (~ 4 mg/kg) in PBS, female Swiss-Webster mice, 5 per cage, 2-week observation
Protocol: To determine whether NK-lysin peptides show in vivo cytotoxic effects, a mouse study was conducted. Briefly, thirty 5–6 weeks old female Swiss-Webster mice (Envigo, Indianapolis, IN) were housed in groups in six individual cages (5 mice per cage) in ABSL2 facilities with ad libitum access to food and water in a 12-h light:dark cycle. After 1 week of acclimation, mice were intraperitoneally injected with a single dose of 100 µg of NK-lysin peptides (NK1, NK2A, NK2B, NK2C, or Sc-NK2A, ~ 4 mg/kg of body weight) in PBS (1 mL). Mice injected with PBS (1 mL) served as a negative control for the study. Mice were daily observed for any signs of toxicity and were euthanized 2 weeks post peptide administration.

Salmonella SX238 = assay: LIVE/DEAD BacLight staining, confocal laser scanning microscopy; assay type: cell-based, Salmonella enterica serovar I 4,[5],12:i:-; conditions: 5 µM peptide
Protocol: The viabilities of bacteria following incubation with NK2A and Sc-NK2A were determined using culture-independent (function of the membrane integrity of the bacteria) staining technique by using LIVE/DEAD™ BacLight™ bacterial viability kit (for microscopy) as described previously. Bacteria in each treatment was visualized using a Nikon A1R + laser scanning confocal microscope (Nikon Instruments, Melville, NY) as described previously. Images were obtained using plan Apo 60 × objective lens (oil) at numerical aperture 1.4. Final figures were prepared using Adobe Photoshop Elements 11.

[6] = tested on: Salmonella SX238 outer- and inner-membranes; assay: Transmission electron microscopy of peptide-treated bacteria; assay type: cell-based, Salmonella enterica serovar I 4,[5],12:i:-; conditions: 20 µM peptide, 1 h at 37 °C, ~1 × 10^7 CFU/well in PBS
Protocol: Morphological changes of bacteria following incubation with NK2A and Sc-NK2A peptides were studied by TEM. An overnight culture of Salmonella (isolate SX238) was centrifuged and resuspended in PBS. One hundred microliters of bacterial suspension were placed in a Honeycomb plate (~ 1 × 10^7 CFU/well) and NK2A, Sc-NK2A (20 µM), and PBS were added and incubated at 37 °C with continuous shaking for 1 h. The bacterial suspensions were mixed with an equal volume of 3% glutaraldehyde in 0.1 M cacodylate buffer (pH 7.4) and processed for TEM as described before. Sections were examined with a FEI Tecnai G2 Biotwin (FEI Co., Hillboro, OR) TEM and images were taken with Advanced Microscopy Technologies (AMT Inc., Danvers, […]) imaging camera.

[7] = tested on: MDR Salmonella outbreak isolate SX238 cytoplasmic membrane; assay: Propidium iodide (PI) uptake assay; assay type: cell-based, Salmonella enterica serovar I 4,[5],12:i:-; conditions: 5 µM peptide, 30 min, ~1 × 10^7 CFU/well in PBS, 3 µM PI
Protocol: The kinetics of NK2A-induced damage to Salmonella cell membranes were evaluated using PI uptake assay as described previously. Briefly, an overnight culture of MDR Salmonella outbreak isolate SX238 was centrifuged, washed with PBS, and resuspended in PBS. Ninety microliters of bacterial suspension was transferred to a 96-well opaque plate (~ 1 × 10^7 CFU/well), mixed with 10 µL of PI (final concentration = 3 µM) and incubated at 37 °C for 5 min. PBS, polymyxin B (2, 4, 25, 50 and 100 µg/mL), NK2A or Sc-NK2A (both at 2 and 5 µM) were added and PI fluorescent intensities in each well was continuously measured (15 s intervals, flex mode) using a FlexStation 3 multi-mode (fluorescent) microplate reader (Molecular Devices LLC., San Jose, CA) for up to 6 h. The excitation and emission wavelengths for PI was set up at 530 nm and 620 nm, respectively.

[8] = tested on: Salmonella enterica serotype Typhimurium LPS; growth of isolate SX238; assay: NK2A-LPS binding by growth curve assay after LPS preincubation; assay type: cell-based
Protocol: The binding of NK2A to Salmonella LPS was studied by growth curve assay and TEM. Five micromolar NK2A (~ 2.2 µg/well) was preincubated with different amounts of Salmonella enterica serotype Typhimurium LPS (Sigma; LPS = 0, 0.5, 1.1, 2.2, 4.4, 8.8 µg/well, final volume of LPS and NK2A = 20 µL) at 37 °C in a honeycomb plate with continuous shaking for 30 min. Overnight Salmonella (isolate SX238) culture was diluted to ~ 1 × 10^6 CFU/mL and 100 µL was transferred into wells containing NK2A-LPS and further incubated at 37 °C with continuous shaking for 24 h. The optical density (OD600) data were analyzed, and growth curve graphs were generated.

`CC[C@H](C)[C@H](NC(=O)[C@H](CO)NC(=O)[C@H](CCCCN)NC(=O)[C@H](CS)NC(=O)[C@H](CC(C)C)NC(=O)CNC(=O)[C@H](CCCCN)NC(=O)[C@H](CC(C)C)NC(=O)[C@H](CC(C)C)NC(=O)[C@H](CCCNC(=N)N)NC(=O)[C@H](CCSC)NC(=O)[C@H](CCCCN)NC(=O)[C@H](CO)NC(=O)[C@H](CS)NC(=O)[C@H](CCSC)NC(=O)[C@H](CCCCN)NC(=O)[C@H](CO)NC(=O)[C@H](C)NC(=O)[C@@H](NC(=O)[C@H](CCC(=O)O)NC(=O)[C@@H](NC(=O)[C@@H](NC(=O)[C@@H](N)[C@@H](C)O)C(C)C)[C@@H](C)CC)C(C)C)C(=O)N[C@H](C(=O)N[C@@H](CCCCN)C(=O)N[C@@H](CCCNC(=N)N)C(=O)N[C@@H](Cc1ccccc1)C(=O)N[C@@H](CC(C)C)C(=O)N[C@@H](CCCNC(=N)N)C(=O)N[C@@H](CCCNC(=N)N)C(=O)O)[C@@H](C)O` [NK2A] (H-TVIEVASKMCSKMRLLKGLCKSITKRFLRR-OH; N-terminus and C-terminus assumed) was tested, and the “duration of growth inhibition at 2 µM” value ([1]; 2 µM peptide, LB broth (Fig. 1a)) was “up to 8 h”, the “growth inhibition of SX238 at different bacterial CFU” value ([1]; 10 µM peptide, 10^5–7 CFU/mL (10^4–6 CFU/well), 24 h growth period) was “completely inhibited growth” and the “duration of partial growth inhibition at high inoculum” value ([1]; 10 µM peptide, 10^8 CFU/mL (10^7 CFU/well)) was “up to 9 h”. The “peptide concentration at which growth of SB377 was completely inhibited” value [2] was no less than 5 µM, the “peptide concentration at which growth of SX231 was inhibited” value [3] was no less than 5 µM and the “peptide concentration at which growth of SB395 was inhibited” value [4] was no less than 5 µM. The “concentrations able to inhibit growth of Salmonella during 24 h” value ([5]; 24 h incubation in LB broth, MDR and non-MDR isolates) was 3.5 to 5 µM, the “final concentration to which three of the four isolates were sensitive” value ([5]; SX238, SX231, SB395, SB377 at 10^5 CFU/well, the three isolates are not named) was 3.5 µM and the “signs of toxicity or death” value (Swiss-Webster mice) was “did not show signs of toxicity or death”. For the same compound, the “live/dead staining result (SYTO 9 / PI)” value (Salmonella SX238) was “many dead (red) Salmonella SX238 were detected”, the “ultrastructural changes to bacterial membranes” value [6] was “extensively damaged outer- and inner-membranes and cytosolic content leakage” and the PI uptake signal [7] was “rapid PI uptake was observed”. The “delayed bacterial growth recovery after LPS preincubation” value ([8]; 5 µM (2.2 µg) NK2A preincubated 30 min with 1.1 µg and 2.2 µg LPS) was 5 to 10 h and the “effect of LPS preincubation on antimicrobial activity” value ([8]; 5 µM (2.2 µg) NK2A preincubated 30 min with 4.4 µg and 8.8 µg LPS) was “completely inhibited the antimicrobial activity of NK2A”.
